Laboratory results as given in patent US20030190671A1, “Use of metabolic phenotyping in individualized treatment with amonafide” (McGill University, priority 2001, published 2003).
Where two headings read alike, the source gives them in different places.

Tests used:
[1] = tested on: p388 leukemia cells lines; details: cited from earlier work
[2] = cited from earlier work
[3] = Stability of reconstituted amonafide solution; assay type: physicochemical
Description: Intact vials should be stored under refrigeration (2-8° C.). […] However, the reconstituted solution contains no antibacterial preservatives and should be used immediately. It is advised that the reconstituted product be discarded 8 hours after initial entry.
Add the appropriate dose of amonafide to a bag of 100 mL of normal saline prior to administration. Amonafide is very unstable in dextrose-containing solutions and these should not be used for reconstitution or for administration.

[4] = mice, dogs, and rats; cited from earlier work
[5] = tested on: L1210 leukemia cells lines; details: cited from earlier work
[6] = human; cited from earlier work
CYP1A2 = molecular target: T1, CYP1A2 (Homo sapiens, UniProt P05177); details: in vitro; cited from earlier work
T1 sequence (P05177 1-516): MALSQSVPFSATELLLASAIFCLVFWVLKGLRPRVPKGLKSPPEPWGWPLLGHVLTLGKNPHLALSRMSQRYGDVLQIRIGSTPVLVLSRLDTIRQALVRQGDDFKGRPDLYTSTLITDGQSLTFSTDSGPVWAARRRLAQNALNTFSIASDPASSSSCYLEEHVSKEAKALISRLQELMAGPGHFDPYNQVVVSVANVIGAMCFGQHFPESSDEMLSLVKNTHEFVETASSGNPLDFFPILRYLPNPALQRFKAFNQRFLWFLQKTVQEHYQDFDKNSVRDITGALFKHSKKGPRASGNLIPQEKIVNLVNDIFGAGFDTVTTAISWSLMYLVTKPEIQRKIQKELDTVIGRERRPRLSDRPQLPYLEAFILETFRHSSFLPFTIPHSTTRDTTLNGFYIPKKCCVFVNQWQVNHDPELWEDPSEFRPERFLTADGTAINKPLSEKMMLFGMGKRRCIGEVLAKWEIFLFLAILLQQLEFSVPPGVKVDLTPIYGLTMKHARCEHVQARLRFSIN

NAT2 = details: cancer individuals phenotyped with caffeine; cited from earlier work
B16 melanoma = details: cited from earlier work
[7] = tested on: non-small cell lung cancer, prostate cancer and breast cancer; details: cited from earlier work
M5076 sarcoma cell line = details: cited from earlier work
[8] = dogs; single-bolus and daily for 5 days schedules, highest doses administered; cited from earlier work

SMILES: CN(C)CCN1C(=O)c2cccc3cc(N)cc(c23)C1=O [amonafide]
- activity against p388 leukemia [1]: significant activity
- maximum tolerated dose (MTD) ([2]; bolus dose, OSU study (Leiby et al.)): 1125 mg/m^2
- maximum tolerated dose (MTD) ([2]; daily times five every 21 days, MDA (Legha et al.)): 400 mg/m^2
- maximum tolerated dose (MTD) ([2]; daily times five every 21 days, OSU (Leiby et al.)): 250 mg/m^2
- dose-limiting toxicity ([2]; single bolus and daily times five schedules): myelosuppression
- maximum tolerated dose (MTD) ([2]; single bolus, UTSA (Saez et al.)): 800 mg/m^2
- stability in dextrose-containing solutions [3]: very unstable
- decomposition of reconstituted solution ([3]; reconstituted in normal saline, over 14 days at room temperature or under refrigeration): no decomposition
- preclinical toxicity [4]: reversible hematopoietic, gastrointestinal, renal and hepatic toxicity
- activity against L1210 leukemia [5]: significant activity
- binding to body tissues [6]: highly bound to body tissues
- volume of distribution [6]: large
- substrate of CYP1A2 (CYP1A2): substrate for CYP1A2
- area under the plasma concentration-time curve, fast vs. slow acetylators (NAT2): significantly greater in fast acetylators
- toxicity (myelosuppression), fast vs. slow acetylators (NAT2): fast acetylators had greater toxicity than slow acetylators
- activity against B16 melanoma (B16 melanoma): significant activity
- antitumor activity in non-small cell lung cancer, prostate cancer and breast cancer ([7]; human, in vivo): antitumor activity
- most common dose-limiting side effect ([7]; human, in vivo): granulocytopenia
- neutropenia, day of nadir counts ([7]; previous clinical studies): 12 to 15 days
- neutropenia, day of recovery ([7]; previous clinical studies): ~21 days
- activity against M5076 sarcoma (M5076 sarcoma cell line): significant activity
- neurotoxicity [8]: signs indicative of neurotoxicity
